According to paper PMC12615753, “Glutathione as a taste modulator: molecular mechanisms of interaction with umami and sweet taste receptors” (Food Chemistry: Molecular Sciences, 2025):
pEC50: −log10 of the molar value. Entries after “also recorded” stand apart in the source; their conditions may differ.

Biological target: T1, hTAS1R1 D192F/rTAS1R3 (UniProt Q7RTX1+Q923K1, D192F)
T1 construct: The cDNA coding region of rTAS1R3 was synthesized with optimized-codon usage for human expression; expressed in transfected cells; host or cells: HEK293T/17
T1 sequence (Q7RTX1 21-841 D192F): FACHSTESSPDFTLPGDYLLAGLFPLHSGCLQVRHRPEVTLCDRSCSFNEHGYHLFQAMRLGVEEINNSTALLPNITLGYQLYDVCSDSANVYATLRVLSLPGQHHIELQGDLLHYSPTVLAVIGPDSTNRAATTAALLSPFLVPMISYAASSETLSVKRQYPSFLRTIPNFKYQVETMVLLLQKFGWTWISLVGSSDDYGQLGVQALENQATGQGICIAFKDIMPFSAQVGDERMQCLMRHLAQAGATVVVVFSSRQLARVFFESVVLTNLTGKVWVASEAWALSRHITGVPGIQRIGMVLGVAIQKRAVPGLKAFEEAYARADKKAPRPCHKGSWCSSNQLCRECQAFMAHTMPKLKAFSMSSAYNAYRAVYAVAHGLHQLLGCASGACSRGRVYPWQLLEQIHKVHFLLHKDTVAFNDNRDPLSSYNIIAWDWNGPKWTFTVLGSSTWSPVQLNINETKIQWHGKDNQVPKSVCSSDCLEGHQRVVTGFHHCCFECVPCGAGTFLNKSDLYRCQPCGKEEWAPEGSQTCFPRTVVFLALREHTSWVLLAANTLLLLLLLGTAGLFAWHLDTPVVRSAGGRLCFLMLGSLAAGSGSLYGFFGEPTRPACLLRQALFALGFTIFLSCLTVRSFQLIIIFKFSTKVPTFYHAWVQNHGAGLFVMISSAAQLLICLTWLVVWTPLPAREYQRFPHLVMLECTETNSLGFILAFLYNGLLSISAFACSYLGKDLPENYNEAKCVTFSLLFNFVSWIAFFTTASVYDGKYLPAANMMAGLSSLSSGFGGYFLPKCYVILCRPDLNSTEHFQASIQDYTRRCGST
T1 sequence (Q923K1 21-858): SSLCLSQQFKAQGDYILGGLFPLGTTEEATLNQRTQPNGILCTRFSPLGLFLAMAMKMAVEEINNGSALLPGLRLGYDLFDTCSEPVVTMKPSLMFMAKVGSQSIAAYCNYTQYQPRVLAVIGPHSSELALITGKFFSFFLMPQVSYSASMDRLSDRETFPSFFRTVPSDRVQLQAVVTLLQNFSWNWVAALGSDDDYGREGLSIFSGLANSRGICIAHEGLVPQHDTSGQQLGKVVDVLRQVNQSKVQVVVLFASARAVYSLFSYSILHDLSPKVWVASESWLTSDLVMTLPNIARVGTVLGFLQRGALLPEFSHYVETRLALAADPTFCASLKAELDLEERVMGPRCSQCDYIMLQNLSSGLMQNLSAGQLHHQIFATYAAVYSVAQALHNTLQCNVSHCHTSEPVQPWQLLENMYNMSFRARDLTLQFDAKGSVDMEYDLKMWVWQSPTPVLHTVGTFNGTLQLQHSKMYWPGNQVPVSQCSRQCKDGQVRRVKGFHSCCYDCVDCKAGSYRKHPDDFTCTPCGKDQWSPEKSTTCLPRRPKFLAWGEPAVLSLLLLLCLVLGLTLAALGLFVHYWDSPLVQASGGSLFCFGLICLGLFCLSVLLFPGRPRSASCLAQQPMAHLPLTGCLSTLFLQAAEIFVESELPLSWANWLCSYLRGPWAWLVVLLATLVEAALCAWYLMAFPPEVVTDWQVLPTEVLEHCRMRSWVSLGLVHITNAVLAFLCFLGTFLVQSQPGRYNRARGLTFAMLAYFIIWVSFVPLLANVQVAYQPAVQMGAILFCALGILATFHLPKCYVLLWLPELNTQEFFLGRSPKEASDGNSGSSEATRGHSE
Test: Calcium assay, hTAS1R1 mutant co-expressed with rTAS1R3
Format: cell-based, human, rat
Settings: for response to the agonist alone, vs WT: D192F
Source text: Chimeric Gα proteins, such as Gα16Gust44, Gα16Gi3 or Gα15i2, are widely used in the functional expression of TAS1R receptors ([Backes et al., 2015]; [Suess et al., 2015]; [Toda et al., 2021], [Toda et al., 2013], [Toda et al., 2018]; [Zhang et al., 2008]). Chimeric Gα15i2 (([Toda et al., 2013]), Supplementary data) was generated by replacing the last five residues of the C-terminal tail of rat Gα15i2 (EINLL) (UniProt number G3V6N8; https://www.uniprot.org/uniprot/) with the counterpart sequence from human GNAI2 (DCGLF) (UniProt number P04899-1) and cloning into the pcDNA3.1/Hygro vector (Invitrogen, Thermo Fisher Scientific, Illkirch, France) between the HindIII and NotI restriction sites, resulting in the plasmid pcDNA3.1-Gα15i2. Chimeric Gα16Gust44 construct have already been reported ([Raliou et al., 2011]). Briefly, Gα16Gust44 was generated by replacing the C-terminal of Gα16 with the C-terminal 44 residues of gustducin. As previously described, hTAS1R1 was amplified from human fungiform papillae cDNA and cloned and inserted into pcDNA3 (Invitrogen), generating pcDNA3-TAS1R1-WT (wild-type) ([Raliou et al., 2011]). […] The cDNA coding region of rTAS1R3 was synthesized with optimized-codon usage for human expression (Genewiz) and was cloned and inserted into the mammalian pcDNA4/myc-HisA (Invitrogen) expression vector between the EcoRI and NotI restriction sites, resulting in the plasmid pcDNA4-rTAS1R3. […] The sequence integrity of all the plasmid constructs was verified via automated DNA sequencing (Genewiz).
The hTAS1R1 mutants were co-expressed with the rTAS1R3 subunit in HEK293 cells. […] As a control, the functionality of the mutated receptors was checked after stimulation with S807 (Fig. S8), which interacts with TAS1R1-TMD ([Zhang et al., 2008]).

SMILES | pEC50 | response to the agonist alone, vs WT
N[C@@H](CCC(=O)N[C@@H](CS)C(=O)NCC(=O)O)C(=O)O [GSH, γ-L-glutamyl-L-cysteinyl-glycine] | < 1.52 | fully abolished; also recorded: completely abolished
N[C@@H](CCC(=O)O)C(=O)O [L-Glu, L-glutamic acid, reference compound] | – | completely suppressed; also recorded: completely abolished
CCCC(CCC)NC(=O)c1ccc2c(c1)OCO2 [S807, N-(heptan-4-yl)benzo[d][1,3]dioxole-5-carboxamide, reference compound] | – | increased
